Data on three compounds can be found in ChEMBL document CHEMBL1201862, “PubChem BioAssay data set” (2004).

A word on the IC50: it is the concentration that inhibits the measured activity by half.

Calls of active or inactive are those of the source. Rule as the data show it: actives have a measured IC50 and inactives only a lower limit.

Envelope glycoprotein gp160, sequence (Q6QLK5 whole entry, the tested form may be a part): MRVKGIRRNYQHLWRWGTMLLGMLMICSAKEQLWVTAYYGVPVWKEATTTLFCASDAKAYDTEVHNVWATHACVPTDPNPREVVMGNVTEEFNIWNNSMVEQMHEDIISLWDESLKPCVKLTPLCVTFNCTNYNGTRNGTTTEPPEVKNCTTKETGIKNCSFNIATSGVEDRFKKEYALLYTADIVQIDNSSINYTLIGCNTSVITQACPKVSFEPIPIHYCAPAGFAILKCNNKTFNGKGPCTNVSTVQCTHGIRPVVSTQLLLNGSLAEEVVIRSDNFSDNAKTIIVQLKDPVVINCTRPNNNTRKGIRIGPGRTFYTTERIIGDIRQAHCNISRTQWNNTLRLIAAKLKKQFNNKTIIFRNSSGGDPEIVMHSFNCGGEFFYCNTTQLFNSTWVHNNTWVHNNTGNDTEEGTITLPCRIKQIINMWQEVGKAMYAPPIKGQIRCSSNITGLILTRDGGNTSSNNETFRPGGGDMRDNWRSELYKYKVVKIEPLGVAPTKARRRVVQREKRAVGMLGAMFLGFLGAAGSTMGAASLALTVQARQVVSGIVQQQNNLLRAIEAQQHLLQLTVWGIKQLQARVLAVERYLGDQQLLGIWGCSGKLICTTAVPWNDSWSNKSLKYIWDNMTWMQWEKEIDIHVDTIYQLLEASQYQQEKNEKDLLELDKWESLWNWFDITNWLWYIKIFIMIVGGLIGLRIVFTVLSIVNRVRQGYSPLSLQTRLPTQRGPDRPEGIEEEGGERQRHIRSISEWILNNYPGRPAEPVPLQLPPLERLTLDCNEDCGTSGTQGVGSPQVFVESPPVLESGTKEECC

The experiment has as its target Envelope glycoprotein gp160 (Human immunodeficiency virus 1, UniProt Q6QLK5). The experiment is described as follows: inhibitors of HIV fusion peptide binding, primary screen, biochemical, uHTS, fluorescence dequenching (AID 1986).
As for `COc1ccccc1NS(=O)(=O)c1cccc(N2C(=O)/C(=C\Nc3ccccc3C(=O)O)c3ccccc3C2=O)c1`, the half-maximal inhibitory concentration (IC50) was 13.1 µM (active). Consider `CSc1nnc(-c2ccccc2/N=C/c2c(C)nn(-c3ccc4ccccc4c3)c2O)c(O)n1`, for which the half-inhibitory concentration (IC50) is 25.8 µM (active).

`COc1cc(/C=C2\C(=N)N3N=C(S(C)(=O)=O)SC3=NC2=O)ccc1OCCOc1ccccc1C`: the half-inhibitory concentration (IC50) is 13.7 µM (active).
